From patent US6270780A, “Cosmetic compositions containing resveratrol” (Chesebrough-Pond's USA Co., division of Conopco, priority 1998, dated 2001)
Where two headings read alike, the source gives them in different places.

Test system: ZR75 cells
Test: 3H-thymidine incorporation (DNA synthesis) / proliferation of ZR75 cells, estrogen-like activity
Assay type: cell-based, human
Conditions: for activity at 0.001 µM / activity at 0.01 µM / activity at 0.1 µM / activity at 1 µM: Homo sapiens, control water; for activity at 0.001 µM: 1 nM; for activity at 0.01 µM: 10 nM; for activity at 0.1 µM: 100 nM; for activity at 1 µM: 1000 nM, read-out: DNA synthesis (% of Control)
Source text: The following test was employed to determine whether resveratrol has an estrogen-like activity:
The ZR75 cell line is a ductal breast carcinoma cell line, originally isolated from malignant mammary epithelium of a person (Engel et al., Human breast carcinoma cells in continuous culture: A review., Cancer Res., 38: 4327-4339, 1978). This cell line contains receptors for estrogen, progesterone and other steroid hormones, but responds through an increase in proliferation only to estrogen. The cell line contains high affinity estrogen-specific receptors. Therefore, this cell line is used for testing estrogen-like activity (Markiewicz et al., In vitro bioassays of non-steroidal phytoestrogens, J. Steroid Biochem. Molec. Biol., 45: 399-405, 1993)
Methodology Used for Determining the Rate of DNA Synthesis in Cells
The incorporation of ^3 H-thymidine by cultured cells was used as an assay of cell proliferation (both for ZR75 cells and for keratinocytes). Thymidine is one of four deoxynucleosides which are the monomeric units of DNA. Prior to cell division of a somatic cell, the complete genome of the cell undergoing cell division is replicated. This involves large scale DNA synthesis by the cell and enables both daughter cells to receive identical copies of the genetic material. When ^3 H-thymidine is included in the culture media of cells which are synthesizing DNA in preparation for cell division then the labeled thymidine is incorporated into the newly synthesized DNA. The extent of incorporation of ^3 H-thymidine into a population of cells is proportional to the rate of DNA synthesis by this population of cells and therefore an indication of their cellular proliferation.
ZR75 cells (from American Type Culture Collection, Rockville, Md.) were grown in RPMI1640 media (from Gibco Life Technologies) with 10% fetal bovine serum (FBS) , 100 units penicillin per ml and 100 units of streptomycin per ml. All incubations were performed at 37° C. in 5% CO2. […] The cells were seeded at a density of one million per 75 cm2 flask. For the experiment, the cells were seeded in 24 well plates at 100,000 cells per ml per well.
After growing for 24 hours, the media was removed, the cells were washed with PBS (phosphate buffered saline, 0.01 M sodium phosphate, 0.138 M sodium chloride, 0.0027 M potassium chloride, pH 7.4) and 1 ml of RPMI 1640 without serum (but with streptomycin and penicillin) was added. Stock solutions of resveratrol in dimethyl sulfoxide (DMSO) and estradiol in water were prepared. […] After another 24 hours, one μCi of [methyl-3H] thymidine was added to each well. The media was removed after 24 hours. The cells were washed once in PBS, the PBS was removed completely and the cells were left on ice to incubate with 1 ml per well of 10% TCA (trichloroacetic acid) for 30 minutes. The plates were washed 3 times with 5% TCA to remove all traces of thymidine which wasn't incorporated into the cells. 500 μl of 0.1M sodium hydroxide was added to each well and the plates were incubated at room temperature for at least 30 minutes. 250 μl of each sample was transferred to scintillation vials and after adding 5 mL of counting fluid, the vials were counted for 5 minutes each on a setting for tritium. […] Values were expressed as mean of quadruplicate wells +/- standard deviation.

Work on `C[C@]12CC[C@@H]3c4ccc(O)cc4CC[C@H]3[C@@H]1CC[C@@H]2O` [Estradiol, estradiol, reference compound] yielded an activity at 0.001 µM (ZR75, EXPT 1) of 220 ± 11%, an activity at 0.01 µM (ZR75, EXPT 1) of 210 ± 9.7% and an activity at 0.1 µM (ZR75, EXPT 1) of 205 ± 15.6%. It also gave an activity at 1 µM (ZR75, EXPT 1) of 190 ± 24.5%, an activity at 0.001 µM (ZR75, EXPT 2) of 133 ± 29% and an activity at 0.01 µM (ZR75, EXPT 2) of 152 ± 17.7%. The activity at 0.1 µM (ZR75, EXPT 2) was 156 ± 11.7%, the activity at 1 µM (ZR75, EXPT 2) was 142 ± 18.3% and the “proliferation of ZR 75 cells” value (Table 1 summary) was “stimulated proliferation of ZR 75 cells”.
